# Results as given in patent US6187810A, “Macrocyclic compounds made from suboxide units” (Donatur Dr. Kerek GmbH, priority 1996, dated 2001).
# Read-outs that look alike come from different tables or passages of the source.
# Columns and labels:
# hemoglobin = details: cited from earlier work
# mice = details: cited from earlier work; for toxicity in words (blood toxin, irritation): mouse, in vivo
# [1] = Acute toxicity of cardiac glycosides applied together with the active substances; assay type: in vivo
# Source text: Furthermore, as was experimentally established, the active substances according to the invention are capable to control the activity of several other essential enzymes, for example collegenases, hyaluronidases, phosphokinases and other enzymes. According to all indications, the active substances according to the invention are useable as endogenous ligands of the Na^+,K^+ -ATPase enzyme.
smiles,measurement,setting,value
"O=C=C=C=O [C3 O2, carbon suboxide]",binding to hemoglobin,hemoglobin,irreversibly binds hemoglobin
same,tolerability limit in mice,mice; C3 O2 in dry air,0.2-0.4%
same,"toxicity in words (blood toxin, irritation)",mice,irritating to mucus membranes
same,"toxicity in words (blood toxin, irritation)",mice; listed as Carbon suboxide,relatively strong blood toxin
C[C@@H]1O[C@@H](O[C@H]2CC[C@]3(C=O)[C@H]4CC[C@]5(C)[C@@H](c6ccc(=O)oc6)CC[C@]5(O)[C@@H]4CC[C@]3(O)C2)[C@H](O)[C@H](O)[C@H]1O[C@@H]1O[C@H](CO)[C@@H](O)[C@H](O)[C@H]1O [hellebrin],LD50,"[1]; with active substances at molar ratio 0.02 to 2/1 mol glycoside, preferably 1:1",considerably higher
C[C@@H]1O[C@@H](O[C@H]2C[C@@H](O)[C@]3(CO)[C@H]4[C@H](O)C[C@]5(C)[C@@H](C6=CC(=O)OC6)CC[C@]5(O)[C@@H]4CC[C@]3(O)C2)[C@H](O)[C@H](O)[C@H]1O [ouabain],toxic side-effects of cardiac glycoside,[1]; active substances applied together with the glycoside,reduction of the toxic side-effects
